Read-outs that look alike come from different tables or passages of the source.
Key:
Format in all cases: biochemical
JAK2 = JAK2 (Homo sapiens (Human), UniProt O60674); experiment: JAK Caliper Enzyme Assay at 1 mM ATP, JAK2
In short: (§1)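 First, compound was incubated at room temperature with recombinant human kinase domain, a synthetic peptide and 1 mM ATP until 20–30% of peptide was phosphorylated. Next, EDTA stopped the reaction. Finally, electrophoretic separation quantified product, and percent effect relative to controls was plotted against concentration.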

JAK3 = JAK3 (Homo sapiens (Human), UniProt P52333); experiment: JAK Caliper Enzyme Assay at 1 mM ATP, JAK3
JAK3, sequence (P52333 822-1111): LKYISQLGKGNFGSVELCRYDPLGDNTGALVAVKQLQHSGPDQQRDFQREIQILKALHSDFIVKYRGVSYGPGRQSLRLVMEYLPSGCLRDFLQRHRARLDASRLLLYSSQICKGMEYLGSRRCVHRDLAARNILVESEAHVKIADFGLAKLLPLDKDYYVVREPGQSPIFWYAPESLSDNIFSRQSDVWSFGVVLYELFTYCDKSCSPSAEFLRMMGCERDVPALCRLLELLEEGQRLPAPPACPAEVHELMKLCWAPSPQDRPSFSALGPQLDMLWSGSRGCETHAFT
In short: (§2)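 Recombinant human kinase domains phosphorylate a fluorescent synthetic peptide at 1 mM ATP, room temperature, with enzyme and time tuned for 20-30% conversion; EDTA-stopped. Product/substrate separated by microfluidic mobility shift; percent effect versus DMSO and positive controls fitted to IC50 (nM).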

JAK1 = JAK1 (Homo sapiens (Human), UniProt P23458); experiment: JAK Caliper Enzyme Assay at 1 mM ATP, JAK1
JAK1, sequence (P23458 875-1153): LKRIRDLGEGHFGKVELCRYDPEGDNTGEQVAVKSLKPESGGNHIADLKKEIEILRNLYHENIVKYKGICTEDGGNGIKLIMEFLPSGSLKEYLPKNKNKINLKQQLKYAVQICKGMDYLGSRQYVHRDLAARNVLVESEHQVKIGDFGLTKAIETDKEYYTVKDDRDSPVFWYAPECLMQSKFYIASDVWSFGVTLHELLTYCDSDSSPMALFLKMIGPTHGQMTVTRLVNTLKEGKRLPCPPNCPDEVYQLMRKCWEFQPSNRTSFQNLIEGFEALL
In short: as §2

TYK2 = TYK2 (Homo sapiens (Human), UniProt P29597); experiment: JAK Caliper Enzyme Assay at 1 mM ATP, TYK2
TYK2, sequence (P29597 897-1176): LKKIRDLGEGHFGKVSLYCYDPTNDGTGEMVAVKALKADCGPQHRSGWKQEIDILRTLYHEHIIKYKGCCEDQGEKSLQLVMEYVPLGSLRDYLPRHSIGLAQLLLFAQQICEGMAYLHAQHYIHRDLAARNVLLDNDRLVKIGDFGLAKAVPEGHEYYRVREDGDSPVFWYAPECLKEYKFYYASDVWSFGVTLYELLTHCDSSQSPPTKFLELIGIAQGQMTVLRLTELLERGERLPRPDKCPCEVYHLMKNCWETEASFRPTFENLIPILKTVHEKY
In short: as §1

JAK2, sequence (O60674 849-1124): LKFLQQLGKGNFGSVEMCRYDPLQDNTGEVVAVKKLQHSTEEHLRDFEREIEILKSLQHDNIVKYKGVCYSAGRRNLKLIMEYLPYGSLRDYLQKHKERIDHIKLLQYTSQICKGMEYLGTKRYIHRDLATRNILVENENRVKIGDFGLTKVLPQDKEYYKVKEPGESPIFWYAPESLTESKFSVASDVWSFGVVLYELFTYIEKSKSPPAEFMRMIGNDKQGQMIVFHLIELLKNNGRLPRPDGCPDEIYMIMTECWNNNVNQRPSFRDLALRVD

IC50 (JAK2) [nM] | IC50 (JAK3) [nM] | IC50 (JAK1) [nM] | IC50 (TYK2) [nM] | IC50 (JAK2; JAK Caliper enzyme assay) [nM] | IC50 (JAK3; JAK Caliper enzyme assay) [nM] | IC50 (JAK1; JAK Caliper enzyme assay) [nM] | IC50 (TYK2; JAK Caliper enzyme assay) [nM] | Compound
9300 | > 10000 | > 10000 | 1180 | – | – | – | – | N#CC[C@]1(n2ccc(-c3nc(-c4ccc(O)c(C(N)=O)n4)cc4ncccc34)n2)C[C@H](C#N)C1 [Example 227, 6-(5-{1-[cis-3-cyano-1-(cyanomethyl)cyclobutyl]-1H-pyrazol-3-yl}-1,6-naphthyridin-7-yl)-3-hydroxypyridine-2-carboxamide]
1580 | > 10000 | > 10000 | 137 | – | – | – | – | Cc1ccc(-c2cc(-c3cnn(C4(CC#N)CN(S(C)(=O)=O)C4)n3)c3cccnc3c2)cn1 [Example 355, [3-{4-[7-(6-methylpyridin-3-yl)quinolin-5-yl]-2H-1,2,3-triazol-2-yl}-1-(methylsulfonyl)azetidin-3-yl]acetonitrile]
– | – | – | – | > 10000 | > 10000 | > 10000 | 1120 | Cn1cc(-c2cc(-c3cnn(C4(CC#N)CC(C#N)C4)n3)n3ccnc3c2)cn1 (stereo not drawn) [Example 474, trans-3-(cyanomethyl)-3-{4-[7-(1-methyl-1H-pyrazol-4-yl)imidazo[1,2-a]pyridin-5-yl]-2H-1,2,3-triazol-2-yl}cyclobutanecarbonitrile]
6670 | > 10000 | > 10000 | 767 | – | – | – | – | Cc1ccn(-c2cc3ncccc3c(-c3ccn(C4(CC#N)CN(CC(F)(F)F)C4)n3)n2)n1 [Example 143, [3-{3-[7-(3-methyl-1H-pyrazol-1-yl)-1,6-naphthyridin-5-yl]-1H-pyrazol-1-yl}-1-(2,2,2-trifluoroethyl)azetidin-3-yl]acetonitrile]
46 | 7070 | 429 | 16 | – | – | – | – | Cc1cc(-c2nc(-c3cc(N)n(C)n3)cc3ncccc23)nn1[C@]1(CC#N)C[C@H](C#N)C1 [Example 271, cis-3-{3-[7-(5-amino-1-methyl-1H-pyrazol-3-yl)-1,6-naphthyridin-5-yl]-5-methyl-1H-pyrazol-1-yl}-3-(cyanomethyl)cyclobutanecarbonitrile]
– | – | – | – | 369 | > 10000 | 3700 | 55 | N#CC[C@]1(n2ncc(-c3cc(-c4ccc(N)nn4)cc4ncccc34)n2)C[C@H](C#N)C1 [Example 401, trans-3-{4-[7-(6-aminopyridazin-3-yl)quinolin-5-yl]-2H-1,2,3-triazol-2-yl}-3-(cyanomethyl)cyclobutanecarbonitrile]
205 | > 10000 | 237 | 11 | – | – | – | – | CS(=O)(=O)N1CC(CC#N)(n2ccc(-c3nc(-c4ccc(O)cc4)cc4ncccc34)n2)C1 [Example 254, [3-{3-[7-(4-hydroxyphenyl)-1,6-naphthyridin-5-yl]-1H-pyrazol-1-yl}-1-(methylsulfonyl)azetidin-3-yl]acetonitrile]
116 | > 10000 | 120 | 7 | – | – | – | – | CS(=O)(=O)N1CC(CC#N)(n2ccc(-c3nc(-c4c[nH]c5ncccc45)cc4ncccc34)n2)C1 [Example 159, [1-(methylsulfonyl)-3-{3-[7-(1H-pyrrolo[2,3-b]pyridin-3-yl)-1,6-naphthyridin-5-yl]-1H-pyrazol-1-yl}azetidin-3-yl]acetonitrile]
990 | > 10000 | 2580 | 135 | – | – | – | – | N#CC[C@]1(n2ncc(-c3cc(-c4cnc(CO)s4)cc4ncccc34)n2)C[C@H](C#N)C1 [Example 342, trans-3-(cyanomethyl)-3-(4-{7-[2-(hydroxymethyl)-1,3-thiazol-5-yl]quinolin-5-yl}-2H-1,2,3-triazol-2-yl)cyclobutanecarbonitrile]
– | – | – | – | 67 | 9130 | 748 | 16 | N#CC[C@]1(n2ncc(-c3cc(-c4ccc(N)nn4)cc4ncccc34)n2)C[C@@H](C#N)C1 [Example 400, cis-3-{4-[7-(6-aminopyridazin-3-yl)quinolin-5-yl]-2H-1,2,3-triazol-2-yl}-3-(cyanomethyl)cyclobutanecarbonitrile]
46 | 5060 | 121 | 7 | – | – | – | – | CS(=O)(=O)N1CC(CC#N)(n2ccc(-c3nc(-c4c[nH]nc4N)cc4ncccc34)n2)C1 [Example 93, [3-{3-[7-(3-amino-1H-pyrazol-4-yl)-1,6-naphthyridin-5-yl]-1H-pyrazol-1-yl}-1-(methylsulfonyl)azetidin-3-yl]acetonitrile]
726 | > 10000 | 2220 | 48 | – | – | – | – | N#CC[C@]1(n2ccc(-c3nc(-c4ccnc(C(N)=O)n4)cc4ncccc34)n2)C[C@H](C#N)C1 [Example 243, 4-(5-{1-[trans-3-cyano-1-(cyanomethyl)cyclobutyl]-1H-pyrazol-3-yl}-1,6-naphthyridin-7-yl)pyrimidine-2-carboxamide]
447 | > 10000 | 1380 | 27 | – | – | – | – | Cc1cc(-c2nc(-c3cc[nH]n3)cc3ncccc23)nn1[C@]1(CC#N)C[C@@H](C#N)C1 [Example 269, trans-3-(cyanomethyl)-3-{5-methyl-3-[7-(1H-pyrazol-3-yl)-1,6-naphthyridin-5-yl]-1H-pyrazol-1-yl}cyclobutanecarbonitrile]
32 | 2150 | 319 | 11 | – | – | – | – | Cn1cc(-c2cc(-c3cnn(C4(CC#N)CC(C#N)C4)n3)c3cccnc3c2)cn1 (stereo not drawn) [Example 325, cis-3-(cyanomethyl)-3-{4-[7-(1-methyl-1H-pyrazol-4-yl)quinolin-5-yl]-2H-1,2,3-triazol-2-yl}cyclobutanecarbonitrile]
5820 | > 10000 | > 10000 | 1510 | – | – | – | – | N#CCC1(n2ccc(-c3nc(-c4cnc5c(c4)CCC5)cc4ncccc34)n2)CN(CC(F)(F)F)C1 [Example 232]
> 10000 | > 10000 | > 10000 | 3170 | – | – | – | – | CS(=O)(=O)N1CC(CC#N)(n2ccc(-c3nc(-c4ccccc4CO)cc4ncccc34)n2)C1 [Example 255, [3-(3-{7-[2-(hydroxymethyl)phenyl]-1,6-naphthyridin-5-yl}-1H-pyrazol-1-yl)-1-(methylsulfonyl)azetidin-3-yl]acetonitrile]
– | – | – | – | 8070 | > 10000 | > 10000 | 1540 | N#CC[C@]1(n2ncc(-c3cc(-c4cnc5ncccn45)cc4ncccc34)n2)C[C@H](C#N)C1 [Example 418, trans-3-(cyanomethyl)-3-{4-[7-(imidazo[1,2-a]pyrimidin-3-yl)quinolin-5-yl]-2H-1,2,3-triazol-2-yl}cyclobutanecarbonitrile]
207 | > 10000 | 586 | 52 | – | – | – | – | Cn1ncc(-c2cc3ncccc3c(-c3ccn(C4(CC#N)CN(S(C)(=O)=O)C4)n3)n2)c1N [Example 137, [3-{3-[7-(5-amino-1-methyl-1H-pyrazol-4-yl)-1,6-naphthyridin-5-yl]-1H-pyrazol-1-yl}-1-(methylsulfonyl)azetidin-3-yl]acetonitrile]
> 10000 | > 10000 | > 10000 | 2360 | – | – | – | – | COc1ncc(-c2cc3ncccc3c(-c3ccn(C4(CC#N)CN(CC(F)(F)F)C4)n3)n2)cn1 [Example 236, [3-{3-[7-(2-methoxypyrimidin-5-yl)-1,6-naphthyridin-5-yl]-1H-pyrazol-1-yl}-1-(2,2,2-trifluoroethyl)azetidin-3-yl]acetonitrile]
895 | > 10000 | 5400 | 138 | – | – | – | – | CCCS(=O)(=O)N1CC(CC#N)(n2ccc(-c3nc(-c4cnn(C)c4)cc4ncccc34)n2)C1 [Example 106, [3-{3-[7-(1-methyl-1H-pyrazol-4-yl)-1,6-naphthyridin-5-yl]-1H-pyrazol-1-yl}-1-(propylsulfonyl)azetidin-3-yl]acetonitrile]
94 | 8910 | 432 | 13 | – | – | – | – | N#CCC1(n2ncc(-c3cc(-c4nc(CO)cs4)cc4ncccc34)n2)CC(C#N)C1 (stereo not drawn) [Example 340, cis-3-(cyanomethyl)-3-(4-{7-[4-(hydroxymethyl)-1,3-thiazol-2-yl]quinolin-5-yl}-2H-1,2,3-triazol-2-yl)cyclobutanecarbonitrile]
1790 | > 10000 | 2570 | 207 | – | – | – | – | N#CCC1(n2ccc(-c3nc(-c4ccn[nH]4)cc4ncccc34)n2)CC(CO)C1 (stereo not drawn) [Example 28, [trans-3-(hydroxymethyl)-1-{3-[7-(1H-pyrazol-5-yl)-1,6-naphthyridin-5-yl]-pyrazol-1-yl}cyclobutyl]acetonitrile]
2070 | > 10000 | 2030 | 88 | – | – | – | – | N#CCC1(n2ccc(-c3nc(-c4ccc(O)nc4)cc4ncccc34)n2)CN(C2CC(F)(F)C2)C1 [Example 185, [1-(3,3-difluorocyclobutyl)-3-{3-[7-(6-hydroxypyridin-3-yl)-1,6-naphthyridin-5-yl]-1H-pyrazol-1-yl}azetidin-3-yl]acetonitrile]
224 | > 10000 | 2020 | 53 | – | – | – | – | N#CC[C@]1(n2ccc(-c3nc(-c4cccc(O)n4)cc4ncccc34)n2)C[C@H](C#N)C1 [Example 182, trans-3-(cyanomethyl)-3-{3-[7-(6-hydroxypyridin-2-yl)-1,6-naphthyridin-5-yl]-1H-pyrazol-1-yl}cyclobutanecarbonitrile]

Reference: US11254668B2, “Pyrazolo[1,5-A]pyrazin-4-yl and related derivatives” (Pfizer Inc., priority 2017, dated 2022)
